From paper PMC6795431, “Identification and characterisation of capidermicin, a novel bacteriocin produced by Staphylococcus capitis” (PLoS ONE, 2019)
“Also recorded” adds a separate entry of the source. Where no end group is shown, it is not given here. The star is where a group is joined. For = O=C*

What was measured:
[1] = Temperature stability, bioactivity by agar well diffusion; assay type: physicochemical; conditions: purified peptide, 10, 30, 40, 50, 80, 90 or 121°C for 15 minutes; agar well diffusion with L. lactis HP
Method: (§1) The susceptibility of purified capidermicin peptide to temperature, pH and protease enzymes was investigated through well diffusion assays. To determine temperature stability the purified peptide was subjected to 10, 30, 40, 50, 80, 90, 121°C for 15 minutes. Bioactivity was then determined by carrying out an agar well diffusion assay with L. lactis HP as the bacterial indicator. To evaluate the susceptibility of the peptide to varying pH values, the purified peptide solution was adjusted to pH 2–11 using 1M HCl or 1M NaOH, respectively. After a brief vortex, the peptide was incubated at room temperature for 15 minutes, and the bioactivity was again determined with the well diffusion assay with L. lactis HP. The susceptibility of the peptide to proteolytic cleavage was analysed using trypsin, α-chymotrypsin, pepsin and proteinase K (Sigma-Aldrich). Protease enzymes were dissolved in 100 mM Tris-HCl– 10 mM CaCl2, to a final concentration of 100 μg/ml. Preparations of capidermicin were incubated with the various enzymes at 37°C for 4 hours and the bioactivity of capidermicin was reassessed using the well diffusion assay described above.

[2] = pH stability, bioactivity by agar well diffusion; assay type: physicochemical; conditions: 15 minutes at room temperature, agar well diffusion with L. lactis HP
Method: as §1

proteinase K = biological target: T1, proteinase K (Parengyodontium album, UniProt P06873); conditions: previously observed; cited from earlier work
T1 construct: purchased Sigma-Aldrich
T1 sequence (P06873 106-384): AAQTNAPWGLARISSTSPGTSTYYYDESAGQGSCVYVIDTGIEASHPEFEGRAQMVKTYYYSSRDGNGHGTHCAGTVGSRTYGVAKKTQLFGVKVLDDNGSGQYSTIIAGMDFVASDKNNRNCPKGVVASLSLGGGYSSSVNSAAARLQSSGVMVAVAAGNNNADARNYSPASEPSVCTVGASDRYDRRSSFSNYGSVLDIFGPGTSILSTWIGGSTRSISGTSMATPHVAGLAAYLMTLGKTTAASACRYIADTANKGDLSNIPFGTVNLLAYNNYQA
Method: (§2) Similar findings have been reported for epidermicin NI01 [42] and lacticin Q [41]. While capidermicin is insensitive to α-chymotrypsin and pepsin, a 70% reduction in activity was observed when it was treated with proteinase K or trypsin. […] Resistance to proteases has been reported for other staphyloco ...

trypsin = conditions: cited from earlier work
Method: as §2

Substance	Antimicrobial activity following heat treatment [1]	Bioactivity following exposure to pH 2–8 ([2]; pH adjusted with 1M HCl or 1M NaOH)	Decrease in zone of inhibition at pH 9–11 ([2]; pH adjusted with 1M NaOH) [%]	Reduction in activity for proteinase K (proteinase K) [%]	Reduction in activity for trypsin (trypsin) [%]
For-MSKVISALSKYGPKAVNWAKNHKGQIANWLLHGLSIPDIVQNVKNAVGIK [capidermicin]	retained; also recorded: unaffected	full bioactivity	70		
epidermicin NI01				75	50
